Laboratory results reported in the NIST ThermoML archive (doi:10.1016/j.jct.2016.03.021).

Assay: wn = mass fraction of the nth substance listed
Settings: Liquid; for mass density: Vibrating tube method

CN(CCO)CCO [N-methyldiethanolamine] + O
viscosity [mPa·s]
Settings	w1 = 0.1	w1 = 0.2	w1 = 0.2002	w1 = 0.3	w1 = 0.4
293.15 K, 93 kPa, Concentric cylinders viscometry	1.463	2.293	–	3.942	–
293.15 K, 100 kPa, Falling or rolling sphere viscometry	1.476	2.35	2.35	3.999	–
293.15 K, 5000 kPa, Falling or rolling sphere viscometry	1.475	–	2.353	4.018	–
293.15 K, 10000 kPa, Falling or rolling sphere viscometry	1.475	–	2.357	4.038	–
293.15 K, 20000 kPa, Falling or rolling sphere viscometry	1.471	–	2.364	4.077	–
293.15 K, 30000 kPa, Falling or rolling sphere viscometry	1.472	–	2.372	4.114	–
293.15 K, 40000 kPa, Falling or rolling sphere viscometry	1.47	–	2.38	4.153	–
293.15 K, 60000 kPa, Falling or rolling sphere viscometry	1.474	–	2.399	4.231	–
293.15 K, 80000 kPa, Falling or rolling sphere viscometry	1.477	–	2.419	4.311	–
293.15 K, 100000 kPa, Falling or rolling sphere viscometry	1.485	–	2.437	4.39	–
293.15 K, 120000 kPa, Falling or rolling sphere viscometry	1.492	–	2.464	4.478	–
313.15 K, 93 kPa, Concentric cylinders viscometry	0.9079	1.342	–	2.094	3.145
313.15 K, 100 kPa, Falling or rolling sphere viscometry	0.912	1.345	1.345	2.095	3.238
313.15 K, 5000 kPa, Falling or rolling sphere viscometry	0.914	–	1.347	2.106	3.27
313.15 K, 10000 kPa, Falling or rolling sphere viscometry	0.915	–	1.349	2.118	3.302
313.15 K, 20000 kPa, Falling or rolling sphere viscometry	0.92	–	1.358	2.144	3.365
313.15 K, 30000 kPa, Falling or rolling sphere viscometry	0.923	–	1.367	2.168	3.428
313.15 K, 40000 kPa, Falling or rolling sphere viscometry	0.927	–	1.377	2.192	3.491
313.15 K, 60000 kPa, Falling or rolling sphere viscometry	0.936	–	1.398	2.244	3.618
313.15 K, 80000 kPa, Falling or rolling sphere viscometry	0.945	–	1.418	2.296	3.74
313.15 K, 100000 kPa, Falling or rolling sphere viscometry	0.955	–	1.445	2.356	3.866
313.15 K, 120000 kPa, Falling or rolling sphere viscometry	0.964	–	1.466	2.412	3.996
333.15 K, 93 kPa, Concentric cylinders viscometry	0.6344	0.8719	–	1.276	1.82
333.15 K, 100 kPa, Falling or rolling sphere viscometry	0.624	0.872	0.872	1.271	1.843
333.15 K, 5000 kPa, Falling or rolling sphere viscometry	0.627	–	0.876	1.278	1.861
333.15 K, 10000 kPa, Falling or rolling sphere viscometry	0.63	–	0.881	1.286	1.88
333.15 K, 20000 kPa, Falling or rolling sphere viscometry	0.634	–	0.89	1.302	1.921
333.15 K, 30000 kPa, Falling or rolling sphere viscometry	0.638	–	0.898	1.316	1.956
333.15 K, 40000 kPa, Falling or rolling sphere viscometry	0.643	–	0.907	1.332	1.992
333.15 K, 60000 kPa, Falling or rolling sphere viscometry	0.652	–	0.924	1.367	2.063

mass density [kg/m3]
Settings	w1 = 0.1	w1 = 0.2002	w1 = 0.3	w1 = 0.4
293.15 K, 100 kPa	1007	1016.5	1026.7	1036.6
293.15 K, 500 kPa	1007.2	1016.6	1026.9	1036.8
293.15 K, 1000 kPa	1007.4	1016.8	1027.1	1036.9
293.15 K, 2000 kPa	1007.8	1017.2	1027.4	1037.3
293.15 K, 5000 kPa	1009	1018.4	1028.6	1038.3
293.15 K, 10000 kPa	1011.1	1020.3	1030.4	1040.1
293.15 K, 15000 kPa	1013.2	1022.2	1032.2	1041.9
293.15 K, 20000 kPa	1015.3	1024.2	1034.1	1043.6
293.15 K, 30000 kPa	1019.4	1028	1037.7	1047.1
293.15 K, 40000 kPa	1023.4	1031.8	1041.2	1050.4
293.15 K, 50000 kPa	1027.3	1035.4	1044.6	1053.8
293.15 K, 60000 kPa	1031.1	1039	1048	1057.1
293.15 K, 70000 kPa	1035	1042.6	1051.4	1060.3
293.15 K, 80000 kPa	1038.5	1045.9	1054.6	1063.3
293.15 K, 90000 kPa	1042.2	1049.4	1057.9	1066.4
293.15 K, 100000 kPa	1045.7	1052.8	1061.1	1069.5
293.15 K, 110000 kPa	1049.2	1056	1064.1	1072.4
293.15 K, 120000 kPa	1052.7	1059.3	1067.2	1075.4
293.15 K, 130000 kPa	1056.1	1062.6	1070.3	1078.4
293.15 K, 140000 kPa	1059.5	1065.6	1073.2	1081.1
313.15 K, 100 kPa	1000.2	1008.5	1017.2	1025.5
313.15 K, 500 kPa	1000.4	1008.6	1017.4	1025.6
313.15 K, 1000 kPa	1000.6	1008.8	1017.5	1025.8
313.15 K, 2000 kPa	1001	1009.2	1017.9	1026.2
313.15 K, 5000 kPa	1002.2	1010.4	1019.1	1027.3
313.15 K, 10000 kPa	1004.3	1012.3	1020.9	1029.2
313.15 K, 15000 kPa	1006.3	1014.2	1022.8	1031
313.15 K, 20000 kPa	1008.2	1016.1	1024.6	1032.8
313.15 K, 30000 kPa	1012.3	1019.9	1028.4	1036.3
313.15 K, 40000 kPa	1016.2	1023.7	1032	1040
313.15 K, 50000 kPa	1019.9	1027.3	1035.5	1043.2
313.15 K, 60000 kPa	1023.8	1031	1039	1046.6
313.15 K, 70000 kPa	1027.4	1034.4	1042.3	1050
313.15 K, 80000 kPa	1031	1037.9	1045.5	1053.1
313.15 K, 90000 kPa	1034.5	1041.2	1048.7	1056.2
313.15 K, 100000 kPa	1038.2	1044.7	1052	1059.5
313.15 K, 110000 kPa	1041.5	1047.9	1055.2	1062.5
313.15 K, 120000 kPa	1044.9	1051.1	1058.3	1065.5
313.15 K, 130000 kPa	1048.1	1054.3	1061.3	1068.4
313.15 K, 140000 kPa	1051.4	1057.4	1064.5	1071.4
333.15 K, 100 kPa	990.5	997.8	1005.4	1012.4
333.15 K, 500 kPa	990.6	998	1005.6	1012.7
333.15 K, 1000 kPa	990.8	998.2	1005.7	1012.8
333.15 K, 2000 kPa	991.3	998.6	1006.2	1013.2
333.15 K, 5000 kPa	992.5	999.8	1007.3	1014.4
333.15 K, 10000 kPa	994.6	1001.8	1009.3	1016.4
333.15 K, 15000 kPa	996.6	1003.8	1011.3	1018.4
333.15 K, 20000 kPa	998.6	1005.7	1013.2	1020.3
333.15 K, 30000 kPa	1002.6	1009.7	1017	1024.1
333.15 K, 40000 kPa	1006.7	1013.6	1020.9	1027.9
333.15 K, 50000 kPa	1010.4	1017.2	1024.3	1031.4
333.15 K, 60000 kPa	1014.2	1020.9	1027.9	–
